Experimental data reported in PubChem BioAssay (NCI).
Values joined by “and” are separate entries in the source; they are usually repeats but may differ in a detail not shown here. Equal values may be shown once.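 Growth conditions: 96-well plates. Treatment: test compound, 48 hours, 5 concentrations. Analysis: linear interpolation between bracketing concentrations; unreached endpoints set to highest concentration. Here, GI50 denotes the concentration required for 50% inhibition of growth. The concentration for full growth arrest is given as TGI.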

Columns and labels:
Assay in all cases: NCI anticancer screen, dose series, 48 h
T-47D breast = tested on: T-47D breast
CAKI-1 renal = tested on: CAKI-1 renal
SNB-19 CNS = tested on: SNB-19 CNS
UACC-257 melanoma = tested on: UACC-257 melanoma
OVCAR-5 ovarian = tested on: OVCAR-5 ovarian
HCT-15 colon = tested on: HCT-15 colon

Structure (SMILES)	GI50 (T-47D breast)	TGI (T-47D breast)	GI50 (CAKI-1 renal) [µM]	TGI (CAKI-1 renal) [µM]	GI50 (SNB-19 CNS)	TGI (SNB-19 CNS)	GI50 (UACC-257 melanoma) [µM]	TGI (UACC-257 melanoma) [µM]	GI50 (OVCAR-5 ovarian) [µM]	TGI (OVCAR-5 ovarian) [µM]	GI50 (HCT-15 colon)	TGI (HCT-15 colon)
COC12C=C/C(=C(/C(=O)OCc3ccccn3)C(=O)CCCCCCCCC3(OC)C=C/C(=C(/C(=O)OCc4ccccn4)C(=O)CCCCCCCC1)O3)O2	0.588 µM	6.24 µM	0.481	3.4	1.43 µM	> 100 µM	1.05	4.27	0.538	5.62	–	–
Cc1cc2c(cc1Cl)S/C(=C/C(=O)O)C(Nc1ccc3ncsc3c1)=NS2(=O)=O	22.1 µM	> 54.8 µM	22.1	> 48.9	> 34.3 µM	> 56.2 µM	> 27.2	> 46	23.4	> 42.4	27.4 µM	> 65.5 µM
Nc1ccc(C2=CC(c3ccc(Cl)cc3)N3C=CSC3=N2)cc1 (centres undefined)	4.76 µM	27.7 µM	23.1	> 100	11.8 µM	29 µM	3.8	17	12.2	34.7	2 µM	5.63 µM
COc1ccc2c(c1)c(-c1nc(-c3c[nH]c4ccncc34)cs1)cn2C	–	–	1.64	3.03	1.85 µM	3.36 µM	1.68	3.09	1.64	3.06	1.25 µM	2.58 µM
COc1cc(/C=C/C(=O)/C=C/c2ccc(-n3ccnc3C)cc2)ccc1O	3.12 µM	15.1 µM	3.06	10.9	4.62 µM	86.3 µM	3.33	13.5	14.9	39.3	2.6 µM	8.47 µM
COc1ccc(-c2nc(-c3ccc(C)cc3)cn3ccnc23)cc1	> 50 µM	> 50 µM	4.78	> 50	13.8 µM	> 50 µM	9.54	25.8	28.9	> 50	2.56 µM	> 50 µM
CNC(=O)c1c(NC(=O)c2ccc(C(C)(C)C)cc2)sc2c1CCC(=O)C2	0.184 µM	1.53 µM	0.203	0.945	0.321 µM	1.39 µM	0.824	3.49	0.341	1.41	0.12 µM	1.27 µM
COc1ncc(Nc2ncc([C@@H](C)N3CCN(S(C)(=O)=O)CC3)cc2-c2nc(C)nc(N)n2)cc1F	< 0.01 µM	0.0648 µM	0.194	> 100	0.325 µM	> 66.8 µM	0.0561	> 79.4	< 0.0266	–	0.198 µM	> 100 µM
CCCCCCCCCCCCCCCCCCn1cc[n+](C)c1	0.403 µM and 0.433 µM	2.96 µM and 3.31 µM	–	–	1.22 µM and 1.18 µM	3.57 µM and 2.42 µM	1.53	3.91	0.605	2	0.689 µM and 0.888 µM	2 µM and 2.34 µM
COC(=O)C1=C(O)[C@H](C(=O)OC)C2(O)C(C(=O)OC)[C@H](c3ccc(OC(=O)C(C)c4ccc(CC(C)C)cc4)cc3)C[C@@H]1[C@@H]2C(=O)OC (some centres undefined)	12.3 µM	> 50 µM	> 50	> 50	40 µM	> 50 µM	27.2	> 50	17	> 50	12.9 µM	> 50 µM
COc1cc(Nc2ncc(-c3ccccc3)o2)cc(OC)c1	> 25 µM	> 25 µM	> 19.2	> 25	> 25 µM	> 25 µM	> 25	> 25	> 25	> 25	18.6 µM	> 25 µM
COc1ccc(/C(COc2ccc3oc(-c4ccccc4)cc(=O)c3c2)=N\O)cc1	2.41 µM	> 50 µM	0.0618	24.7	8.57 µM	> 36.5 µM	0.316	–	0.377	> 25.5	0.0264 µM	–
CC1C(C)N(C(=O)CCl)c2ccccc2N1C(=O)CCl (centres undefined)	0.843 µM	2.67 µM	0.186	0.355	2.16 µM	5.4 µM	0.723	3.16	0.896	2.57	0.304 µM	1.28 µM
CCN(Cc1ccccc1)C1CCN(Cc2cc(Br)ccc2O)CC1	24 µM	> 100 µM	57.9	> 100	57.2 µM	> 100 µM	26	> 100	> 100	> 100	20.1 µM	> 100 µM
OC(COC(c1ccccc1)(c1ccccc1)c1ccccc1)C(O)CC1SCCS1 (centres undefined)	–	58.3 µM	–	66.6	–	54.9 µM	–	51.8	–	44	–	73.9 µM
COc1ccc(Cc2coc3ccccc3c2=O)cc1OC	–	> 100 µM	–	49.5	–	> 100 µM	–	> 100	–	> 100	–	> 100 µM
CC(C)(C)C1CCC2c3c([nH]c4ccccc34)C3C(=O)N(c4ccc(Cl)cc4)C(=O)C3C2C1 (centres undefined)	60.9 µM and > 10 µM	> 100 µM	–	–	> 100 µM	> 100 µM	> 100	> 100	–	0.256	52.3 µM and > 10 µM	> 100 µM
CC1=C(c2ccccc2)C(O)(c2ccccc2)C(C)C1=O (centres undefined)	23.1 µM	> 100 µM	24.6	> 100	35.5 µM	> 100 µM	55	> 100	53.1	> 100	31.4 µM	> 100 µM
CC1=C(SCCC(=O)OC(C[Se]C2=C(C)C(=O)c3ccccc3C2=O)C(=O)NCCCCCC(=O)OCc2ccccc2)C(=O)c2ccccc2C1=O (centres undefined)	17.7 µM	51.8 µM	6.89	21.3	3.82 µM	14 µM	3.46	10.1	5.05	18.7	6.53 µM	21.3 µM
